Source: patent US20210038730A1, “PEPTIDE NANOFIBERS” (UNIVERSITY OF PORTSMOUTH HIGHER EDUCATION CORPORATION, priority 2018, published 2021)

Experiments:
GnRH-R on U-87 MG cells = biological target: T1, GnRH-R on U-87 MG cells (Homo sapiens, UniProt P30968); test: SMFS blocking experiments with free GnRH-R ligands; type: binding
T1 construct: endogenous in cells; host or cells: U-87 MG
T1 sequence (P30968 1-328): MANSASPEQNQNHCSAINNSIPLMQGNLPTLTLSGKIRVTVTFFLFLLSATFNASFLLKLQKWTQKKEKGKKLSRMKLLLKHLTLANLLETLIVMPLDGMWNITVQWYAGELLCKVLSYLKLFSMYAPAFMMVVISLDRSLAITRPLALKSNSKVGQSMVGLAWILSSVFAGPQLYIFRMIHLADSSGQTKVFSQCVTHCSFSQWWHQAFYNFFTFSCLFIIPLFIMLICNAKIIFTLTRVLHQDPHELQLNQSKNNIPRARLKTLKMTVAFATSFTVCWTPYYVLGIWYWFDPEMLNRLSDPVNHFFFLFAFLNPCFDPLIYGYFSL
Procedure: Blocking experiments were performed with different GnRH-R ligands (anti-GnRH-R antibody, Glu-GnRH, goserelin acetate, and TPGnRH). U-87 MG cells were analysed with tips functionalised with TPGnRH nanofibers and then the free ligands were added at a final concentration of 1 μg mL^−1 (anti-GnRH-R antibody) or 50 μg mL^−1 (Glu-GnRH, goserelin acetate and TPGnRH). U-87 MG cells treated with ligands were incubated for, at least, one hour at room temperature, and then the same cells were analysed with the same TPGnRH-functionalised tip at the same location in the cell.

U-87 MG cells = test: Cell proliferation (BrdU ELISA); type: cell-based, human; conditions: >7 μM, every two days, 6 days of treatment
Procedure: In vitro antitumour effects of TPGnRH and PAX-loaded TPGnRH were assessed in U-87 MG cells, UP-007, UP-029, SEBTA-023 MDA-MD-231 [triple negative (ER^−, PR—, HER2^−) breast cancer cell line] and SK-OV-3 (human ovarian carcinoma with a low expression of GnRH-R). Cells were seeded at 1,400 cells/cm^2 and allowed to attach and grow for 3 days. In experiments with TPGnRH nanofibers alone (to obtain the IC50 value in each cell line), cells were treated with medium supplemented with the peptide solutions in PBS (0.7 to 700 μM) to achieve a final concentration of 0.07 to 70 μM per well. Media was replaced by fresh media every two days for 6 days. […] On day 4, PAX-loaded TPGnRH nanofibers containing 1 nM of PAX and 7 or 35 μM of TPGnRH were added and the effect on cell viability, proliferation, cell cycle, and apoptosis was assessed on day 6. Only for the MDA-MB-231 cells, on day 4, PAX-loaded TPGnRH nanofibers containing 10 nM of PAX and 7 or 35 μM of TPGnRH were added and the effect on cell viability, proliferation, cell cycle, and apoptosis was also assessed on day 6. […] Cell metabolic activity was measured using MTT assay. […] Afterwards, dimethyl sulfoxide (100 μL) was added to the wells to dissolve the formazan crystals and the absorbance was measured at 570 and 690 nm. […] Cells were incubated with BrdU for 24 hours before the end of the pre-determined time-points. […]

SMILES: CCCCCCCCCCCCCCCC(=O)Oc1ccc(C[C@H](NC(=O)[C@H](CO)NC(=O)[C@H](Cc2c[nH]c3ccccc23)NC(=O)[C@H](Cc2c[nH]cn2)NC(=O)[C@@H](N)CCC(=O)O)C(=O)NCC(=O)N[C@@H](CC(C)C)C(=O)N[C@@H](CCCNC(=N)N)C(=O)N2CCC[C@H]2C(=O)NCC(N)=O)cc1 [TPGnRH, Tyrosine (O-Palmitoyl)-Glu-GnRH]
- Binding Probability of TPGnRH nanofiber tip to U-87 MG cells (GnRH-R on U-87 MG cells; after pre-incubation with the free ligand named as label (antibody 1 μg mL^−1, peptides 50 μg mL^−1)): 4.5%
- Binding Probability of TPGnRH nanofiber tip to U-87 MG cells (GnRH-R on U-87 MG cells; before addition of the free ligand named as label (no pre-incubation)): 14.7%
- effect on cell proliferation (U-87 MG cells): significant reduction in cell proliferation
